These results are taken from ChEMBL document CHEMBL3526141, “Characterization of human liver enzymes involved in the biotransformation of boceprevir, a hepatitis C virus protease inhibitor” (Drug Metab Dispos, 2011).

A value given as a limit tells only on which side of the number the result lay.

The subject of data set [1] is Liver cytosol. Kind of data set: Drug metabolism in human liver cytosol treated with 20 uM [14C]SCH 534129 assessed as 100 uM diazepam-mediated inhibition of metabolite formation LC-MS/MS/FSA method. Type of data set: ADME, tissue-based. Set-up: interact cpd dose 100 uM.
Data set [2] concerns Liver cytosol. Kind of data set: Drug metabolism in human liver cytosol treated with 20 uM assessed as compound formation in presence of NADPH generating system by LC-MS/MS/FSA method. Format: ADME.
Data set [3] in a line: Drug metabolism in human liver mitochondria treated with 20 uM assessed as compound formation in presence of NADPH generating system by LC-MS/MS/FSA method. Type of data set: ADME.
Data set [4] in a line: Retention time of the compound by LC-MS/MS method. Format: physicochemical.
Data set [5] can be described thus: Drug metabolism in human liver S9 fraction treated with 20 uM assessed as compound formation in presence of NADPH generating system by LC-MS/MS/FSA method. Type of data set: ADME, subcellular.
Data set [6] has as its system Liver cytosol. Kind of data set: Drug metabolism in human liver cytosol treated with 20 uM [14C]SCH 534129 assessed as 1 mM ibuprofen-mediated inhibition of metabolite formation LC-MS/MS/FSA method. Format: ADME, tissue-based. Also on record: interact cpd dose 1 mM.
The test system of another data set is Plasma. Kind of data set: Drug metabolism in human plasma treated with [14C]boceprevir assessed as ratio of drug level by LC-MS/MS method relative to boceprevir. Type of data set: ADME, cell-free.

For `CC(C)(C)NC(=O)N[C@H](C(=O)N1C[C@H]2[C@@H]([C@H]1C(=O)N[C@H](CC1CCC1)[C@@H](O)C(N)=O)C2(C)C)C(C)(C)C`, the “inhibition (INH)” value with Liver cytosol [1] worked out at 78%; with Liver cytosol [6] it was 63%. For the same molecule, the Compound recovery in the data set with Liver cytosol [2] is given as 32%; in data set [3] it was 32%; in data set [5], 32%; in the data set with Plasma it was “>= 50%”. The Retention_time in data set [4] is given as 43.1 min.
